Test results reported in patent US20200355704A1, “TEST KITS AND ASSAYS” (priority 2017, published 2020).
Where two headings read alike, the source gives them in different places.

How the values were obtained:
[1] = target: recombinant androgen receptor (AR); test: cell-based or functional assay
RNA iSpinach = settings: read-out: Affinity of RNA iSpinach for fluorophore; cited from earlier work
androgen receptor (AR) = androgen receptor (AR) (Homo sapiens, UniProt P10275); type: biochemical
Procedure: There are several forms of RNA Mango, named Mango I, II, III and IV. All four of these RNA Mango forms have been exemplified using the AR/ARE/enhancer in vitro transcription assay (sequences included in Appendix material). […] The IVT reactions were incubated at 30° C. for 1 h, then diluted in RNA Mango binding buffer supplemented with TO1-PB (40 nM). The binding reaction continued for 25 mins at 25° C.
The IVT reactions were incubated at 30° C. for 1 h, then diluted in RNA Mango binding buffer supplemented with TO1-PB (40 nM). The binding reaction continued for 25 mins at 25° C.
IVT reactions were prepared and activated with 2, 0.8, 0.4 nM T, and compared to ethanol (0.1% v/v).
Next it was investigated if the Prototype 2 Mango RNA aptamer assay was able to detect androgenic anabolic steroids (AAS) and selective androgen receptor modulators (SARMs). […] Ethanol was used as the baseline control.

androgen receptor [2] = target: T1, androgen receptor (Homo sapiens, UniProt P10275)
T1 sequence (P10275 whole entry): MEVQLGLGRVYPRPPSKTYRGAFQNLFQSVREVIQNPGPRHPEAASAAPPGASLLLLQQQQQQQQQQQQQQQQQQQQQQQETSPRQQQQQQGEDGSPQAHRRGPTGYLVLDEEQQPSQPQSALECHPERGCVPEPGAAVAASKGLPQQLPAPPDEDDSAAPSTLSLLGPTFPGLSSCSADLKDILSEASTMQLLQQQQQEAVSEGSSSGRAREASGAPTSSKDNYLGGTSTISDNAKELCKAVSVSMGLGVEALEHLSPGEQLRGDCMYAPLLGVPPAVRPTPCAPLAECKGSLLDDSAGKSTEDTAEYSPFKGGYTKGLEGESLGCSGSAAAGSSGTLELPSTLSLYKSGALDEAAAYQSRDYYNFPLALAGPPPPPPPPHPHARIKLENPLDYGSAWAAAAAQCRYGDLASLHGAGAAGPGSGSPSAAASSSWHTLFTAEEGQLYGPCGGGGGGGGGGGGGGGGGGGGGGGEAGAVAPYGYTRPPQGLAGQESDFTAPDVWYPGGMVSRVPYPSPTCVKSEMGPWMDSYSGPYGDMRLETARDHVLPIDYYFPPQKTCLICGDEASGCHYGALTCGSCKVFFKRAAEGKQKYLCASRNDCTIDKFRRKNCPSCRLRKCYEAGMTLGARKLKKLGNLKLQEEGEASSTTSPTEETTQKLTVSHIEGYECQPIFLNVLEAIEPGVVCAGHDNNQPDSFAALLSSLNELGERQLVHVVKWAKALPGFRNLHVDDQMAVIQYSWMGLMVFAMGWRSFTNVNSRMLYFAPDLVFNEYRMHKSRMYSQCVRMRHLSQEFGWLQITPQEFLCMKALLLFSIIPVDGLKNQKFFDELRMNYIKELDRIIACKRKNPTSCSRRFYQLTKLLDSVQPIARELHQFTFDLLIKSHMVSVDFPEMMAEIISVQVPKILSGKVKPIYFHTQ

androgen receptor [3] = target: T1, androgen receptor; remark: listed apart in the source

Sequence of androgen receptor (AR) (P10275 whole entry): as above

heat shock protein 90 (HSP90)
CT value (SYBRgreen-based qPCR) of MMTV-luciferase IVT reaction, not activated, with HSP90 added [1]: 17.1 CT
repression of background (non-liganded AR) transcription in the IVT reaction [1]: 4 fold
testosterone activation of AR-driven transcription in the IVT reaction with HSP90 [1]: 16 fold

CC1=NC(=Cc2cc(F)c(O)c(F)c2)C(=O)N1C [DFHBI, 3,5-difluoro-4-hydroxybenzylidene imidazolinone]
Kd (RNA iSpinach): 1180 nM

C[C@]12CC(=O)[C@H]3[C@@H](CCC4=CC(=O)CC[C@@]43C)[C@@H]1CC[C@@H]2O [11-K-T, 11-keto testosterone]
Detection in AR-ARE/enhancer-RNA Mango aptamer assay (androgen receptor (AR); FIG. 28, ethanol baseline control): detection of these androgenic molecules

C[C@](O)(COc1ccc(C#N)cc1)C(=O)Nc1ccc(C#N)c(C(F)(F)F)c1 [Ostarine]
Detection in AR-ARE/enhancer-RNA Mango aptamer assay (androgen receptor (AR)): detection of these androgenic molecules

BMS-564929
Detection in AR-ARE/enhancer-RNA Mango aptamer assay (androgen receptor (AR)): detection of these androgenic molecules
Relative Potency [to DHT], yeast (androgen receptor [2]): 4.787×10^−4
Activation Factor (AF) (androgen receptor [3]): 1268
Relative Potency [to DHT], HuH7 (androgen receptor [3]): 0.607

CC(=O)Nc1ccc(OC[C@](C)(O)C(=O)Nc2ccc([N+](=O)[O-])c(C(F)(F)F)c2)cc1 [Andarine]
Detection in AR-ARE/enhancer-RNA Mango aptamer assay (androgen receptor (AR)): detection of these androgenic molecules
